In PubChem BioAssay (NCI):
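Following 48 hours of exposure in 96-well plates, responses at five concentrations were used to interpolate endpoints linearly. TGI denotes the concentration required for complete inhibition of growth.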

Experiments:
Test in all cases: NCI tumour cell line growth inhibition, 48 h
[1] = test system: U251 CNS
[2] = test system: HOP-18 NSCLC
[3] = test system: CCRF-CEM leukemia
[4] = test system: OVCAR-3 ovarian
[5] = test system: HCC-2998 colon
[6] = test system: SF-268 CNS
[7] = test system: NCI-H226 lung
[8] = test system: IGROV1 ovarian
[9] = test system: UACC-62 melanoma
[10] = test system: SK-MEL-2 melanoma
[11] = test system: MCF7 breast
[12] = test system: DMS 114 small cell lung
[13] = test system: SK-OV-3 ovarian
[14] = test system: SNB-78 CNS
[15] = test system: HL-60(TB) leukemia
[16] = test system: HCT-116 colon
[17] = test system: DLD-1 colon
[18] = test system: HOP-92 NSCLC
[19] = test system: K-562 leukemia
[20] = test system: EKVX NSCLC
[21] = test system: COLO 205 colon
[22] = test system: CAKI-1 renal
[23] = test system: RPMI-8226 leukemia
[24] = test system: XF 498 CNS
[25] = test system: OVCAR-5 ovarian
[26] = test system: P388 leukemia
[27] = test system: SNB-19 CNS
[28] = test system: NCI-H23 lung
[29] = test system: SK-MEL-28 melanoma
[30] = test system: DMS 273 small cell lung
[31] = test system: OVCAR-4 ovarian
[32] = test system: KM20L2 colon
[33] = test system: NCI-H460 lung
[34] = test system: SF-539 CNS
[35] = test system: LOX IMVI melanoma
[36] = test system: HOP-62 NSCLC
[37] = test system: MOLT-4 leukemia
[38] = test system: SK-MEL-5 melanoma
[39] = test system: UO-31 renal
[40] = test system: KM12 colon
[41] = test system: NCI-H522 lung
[42] = test system: SN12C renal
[43] = test system: A498 renal
[44] = test system: UACC-257 melanoma
[45] = test system: SW-620 colon
[46] = test system: NCI/ADR-RES ovarian
[47] = test system: SNB-75 CNS
[48] = test system: HCT-15 colon
[49] = test system: A549 NSCLC
[50] = test system: MALME-3M melanoma
[51] = test system: SF-295 CNS
[52] = test system: SN12K1 renal
[53] = test system: OVCAR-8 ovarian
[54] = test system: HT29 colon
[55] = test system: M19-MEL melanoma
[56] = test system: P388/ADR leukemia
[57] = test system: RXF 393 renal

`CCCCC1=C(Br)C(=C(Br)Br)OC1=O` was tested, and the TGI [1] was 17.1 µM, the TGI [2] was 10.5 µM and the TGI [3] was 7.81 µM. The TGI [4] was 6.05 µM, the TGI [5] was 18.1 µM and the TGI [6] was 7.9 µM. It also gave a TGI [7] of 9.35 µM, a TGI [8] of 5.92 µM and a TGI [9] of 6.51 µM. The TGI [10] was 8.49 µM, the TGI [11] was 15.4 µM and the TGI [12] was 5.71 µM. For the same compound, the TGI [13] was 31.4 µM, the TGI [14] was 37 µM and the TGI [15] was 5.38 µM. It also gave a TGI [16] of 8.85 µM, a TGI [17] of 4.37 µM and a TGI [18] of 23.4 µM. It also gave a TGI [19] of 13 µM, a TGI [20] of 10.6 µM and a TGI [21] of 8.11 µM. It also gave a TGI [22] of 5.53 µM, a TGI [23] of 4.67 µM and a TGI [24] of 19.9 µM. For the same compound, the TGI [25] was 30.3 µM, the TGI [26] was 2.4 µM and the TGI [27] was 20.3 µM. For the same compound, the TGI [28] was 15.8 µM, the TGI [29] was 7.78 µM and the TGI [30] was 8.01 µM. It also gave a TGI [31] of 3.32 µM, a TGI [32] of 24.8 µM and a TGI [33] of 16.8 µM. It also gave a TGI [34] of 10.5 µM, a TGI [35] of 4.78 µM and a TGI [36] of 19 µM. For the same compound, the TGI [37] was 5.66 µM, the TGI [38] was 13.5 µM and the TGI [39] was 24.2 µM. For the same compound, the TGI [40] was 9.28 µM, the TGI [41] was 3.5 µM and the TGI [42] was 7.92 µM. It also gave a TGI [43] of 31 µM, a TGI [44] of 6.16 µM and a TGI [45] of 12.4 µM. The TGI [46] was 11.9 µM, the TGI [47] was 16.5 µM and the TGI [48] was 5.55 µM. The TGI [49] was 33.8 µM, the TGI [50] was 5.31 µM and the TGI [51] was 23.7 µM. The TGI [52] was 3.96 µM, the TGI [53] was 11.4 µM and the TGI [54] was 10.2 µM. For the same compound, the TGI [55] was 8.42 µM, the TGI [56] was 5.76 µM and the TGI [57] was 5.95 µM.
With `Nc1nc(N)nc(-c2ccccc2NS(=O)(=O)c2ccc([N+](=O)[O-])cc2)n1` the TGI [1] was greater than 100 µM, the TGI [2] was greater than 100 µM and the TGI [3] was greater than 100 µM. It also gave a TGI [4] greater than 100 µM, a TGI [5] greater than 100 µM and a TGI [6] greater than 100 µM. It also gave a TGI [7] greater than 100 µM, a TGI [8] greater than 100 µM and a TGI [9] greater than 100 µM. It also gave a TGI [10] greater than 100 µM, a TGI [11] greater than 100 µM and a TGI [12] greater than 100 µM. It also gave a TGI [13] greater than 100 µM, a TGI [14] greater than 100 µM and a TGI [15] of 61.5 µM. For the same compound, the TGI [16] was greater than 100 µM, the TGI [17] was greater than 100 µM and the TGI [18] was greater than 100 µM. The TGI [20] was greater than 100 µM, the TGI [21] was greater than 31.6 µM and the TGI [22] was greater than 34.6 µM. It also gave a TGI [23] greater than 100 µM, a TGI [24] of 63.5 µM and a TGI [25] greater than 100 µM. It also gave a TGI [26] greater than 100 µM, a TGI [27] greater than 100 µM and a TGI [28] greater than 100 µM. For the same compound, the TGI [29] was greater than 100 µM, the TGI [30] was greater than 100 µM and the TGI [31] was greater than 100 µM. The TGI [32] was greater than 100 µM, the TGI [33] was greater than 100 µM and the TGI [34] was greater than 100 µM. It also gave a TGI [35] greater than 100 µM, a TGI [36] greater than 100 µM and a TGI [37] greater than 100 µM. It also gave a TGI [38] greater than 84.8 µM, a TGI [39] greater than 100 µM and a TGI [40] greater than 100 µM. The TGI [41] was greater than 100 µM, the TGI [42] was greater than 100 µM and the TGI [43] was greater than 100 µM. It also gave a TGI [44] greater than 100 µM, a TGI [45] greater than 100 µM and a TGI [46] greater than 100 µM. The TGI [47] was greater than 90.6 µM, the TGI [48] was greater than 100 µM and the TGI [49] was greater than 100 µM. It also gave a TGI [50] greater than 100 µM, a TGI [51] greater than 100 µM and a TGI [52] greater than 100 µM. The TGI [53] was greater than 100 µM, the TGI [54] was greater than 100 µM and the TGI [55] was greater than 100 µM. It also gave a TGI [56] greater than 100 µM and a TGI [57] greater than 100 µM.
